“Also recorded” adds a separate entry of the source. Where two headings read alike, the source gives them in different places.
What was measured:
[1] = Lipid peroxidation inhibitory activity (thiobarbituric acid test, linoleic acid); details: at 1 mg/ml of tested compound; TBA test
[2] = molecular target: T1, mushroom tyrosinase (Agaricus bisporus, UniProt C7FF04); experiment: Mushroom tyrosinase activity assay (L-DOPA substrate); assay type: biochemical; details: for activity at 100 µM: <100 inhibitor, >100 activator; for Activity (inhibitor or activator of mushroom tyrosinase): classified from %activity at 100 µM (<100 inhibitor, >100 activator)
Description: Samples were dissolved in a mixture of DMSO and the phosphate buffer solution (40%DMSO, 20 µL) and were added into a 96-well microplate filled with phosphate buffer (20 mM, pH 6.8, 140 µL), mushroom tyrosinase (30 U/mL, 20 µL). After 10 min of pre-incubation at room temperature (25 °C), 20 µL of a 0.85 mM L-DOPA (3,4-dihydroxyphenylalanine) solution in phosphate buffer was added to the mixture. (Final concentration of the tested compound equaled 100 µM and final DMSO content equaled 4%). […] Instead of an inhibitor solution, phosphate buffer was added as the negative control. The percentage of tyrosinase activity was calculated as follows: %Activity = (Sample) × 100/Blank, where Blank = (OD of Blank solution at 10 min)—(OD of Blank solution at 0 min) and Sample = (OD of Sample solution at 10 min)—(OD of Sample solution at 0 min). Each sample was analyzed in triplicate (n = 3). […] Each sample was examined in triplicate.
Target sequence in this assay (C7FF04 1-392): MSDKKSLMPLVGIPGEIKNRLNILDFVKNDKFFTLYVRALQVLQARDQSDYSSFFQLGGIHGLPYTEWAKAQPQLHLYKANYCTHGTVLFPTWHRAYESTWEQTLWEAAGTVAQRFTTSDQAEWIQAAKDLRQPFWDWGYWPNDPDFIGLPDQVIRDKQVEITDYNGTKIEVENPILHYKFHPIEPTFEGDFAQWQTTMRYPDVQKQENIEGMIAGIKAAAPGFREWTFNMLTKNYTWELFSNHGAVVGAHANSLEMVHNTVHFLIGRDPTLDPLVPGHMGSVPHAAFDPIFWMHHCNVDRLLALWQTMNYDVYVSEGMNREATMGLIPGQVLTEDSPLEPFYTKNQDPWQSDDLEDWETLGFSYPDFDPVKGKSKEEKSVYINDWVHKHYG

[3] = Cell viability assay (MTT); assay type: cell-based, Mus musculus; details: mouse, B16F10 melanoma cells
Description: (§1) B16F10 cells were incubated with compounds 13 (25–100 µM) and 14 (25–150 µM) for 48 h. KA (50–200 µM) and 8-MOP (50–150 µM) were used as reference compounds for the tyrosinase inhibitor and the activator, respectively. […] (%viability decreased to 50%).
(§2) B16F10 cells (ATCC-CRL-6475, USA) were cultured in Dulbecco’s modified eagle medium (DMEM) containing 10% fetal bovine serum (FBS), 100 U/mL penicillin, and 1 μg/mL streptomycin. Cell viability was evaluated using the MTT assay. B16F10 cells (5 × 10^3 cells/well) were cultured in a 96-well plate at 37 °C in a 5% CO2 incubator for 24 h. Tested compounds dissolved in DMSO/H2O (40% v/v) at different concentrations were added to sample wells, and the cells were further incubated at 37 °C in a 5% CO2 incubator for 48 h. Then, 50 µL of methylthiazolyldiphenyl-tetrazolium bromide (MTT) solution (0.5 mg/ml in 10 mM phosphate buffer, pH 7.4) was added to each well and left under a CO2 incubator for 2 h. The formazan crystals formed were dissolved in DMSO, and the absorbance was measured at 570 nm. Percent viability was calculated as the percent of surviving cells in the well compared to the control cells.

[4] = test system: B16F10 melanoma cells; experiment: Cell viability assay (MTT); assay type: cell-based, Mus musculus; details: 48 h
Description: as §1, §2

[5] = test system: B16F10 cells; experiment: Melanin content assay; assay type: cell-based, Mus musculus; details: 48 h
Description: Compound 13 and compound 14 were also determined for their melanogenesis activities in the B16F10 cells. Intracellular melanin content was measured. […] However, the increase in melanin content in the cells was lower than cells treated with 8-MOP (Fig. 8B).
The method for the melanin content assay was modified from Lee et al.[37]. B16F10 (8 × 10^4 cell/mL) cells were seeded in a 6-well plate and incubated at 37 °C in a 5% CO2 incubator for 24 h. The tested and reference compounds in various concentrations were mixed with α-melanocyte stimulating hormone (α-MSH, 10 nM) and added to the well. The cells were continuously incubated at 37 °C for 48 h. Then, the cells were washed twice with 10 mM phosphate buffer pH 7.4. 1 M NaOH (0.2 mL) was added to each well and warmed at 65 °C for 1 h. The mixture was centrifuged at 12,000 rpm for 10 min. The absorbance of the supernatant was measured at 405 nm. The percent melanin content in the treatment group was obtained from the absorbance and calculated as a percentage compared to the untreated group.

[6] = molecular target: T1, mushroom tyrosinase; experiment: Enzyme kinetic study (Lineweaver–Burk plot); assay type: biochemical; design: purchased Sigma-Aldrich or Merck AG; details: double-reciprocal (Lineweaver–Burk) plots
Description: Double-reciprocal plots were used to investigate the mechanisms of mushroom tyrosinase inhibition by compound 13 (Fig. 2).
Utilizing the same protocol as the tyrosinase activity assay, an enzyme kinetics study was conducted with compound 13. A Michaelis–Menten plot was generated by varying the substrate concentration (25–10,000 µM) and reaction rate under conditions with and without inhibitors. A Lineweaver–Burk plot was generated, and the inhibition mode of the inhibitor was determined based on the variation of Km and Vmax as the inhibitor concentration changed.
Target sequence in this assay (C7FF04 1-392 limits assumed): as the sequence (C7FF04 1-392) above

[7] = test system: murine tyrosinase; details: broad range; cited from earlier work
[8] = at 100 µM of tested compound, read-out: Mushroom tyrosinase %Activity ± S.D.

Structure (SMILES) | Lipid peroxidation %Inhibition ± S.D. [1] [%] | activity at 100 µM [2, 8] [%] | Activity (inhibitor or activator of mushroom tyrosinase) [2] | melting point [°C] | other results
Cc1cc(C(C)(C)C)c(O)c(C(C)(C)C)c1 [BHT, butylated hydroxytoluene, reference compound] | 62.90 ± 3.56 |  |  |  | 
CCOC(=O)C(Cc1ccccc1)NC(=O)Cc1cc(=O)oc2cc(O)ccc12 (stereo not drawn) [Compound 7, Ethyl 2-(2-(7-hydroxy-2-oxo-2H-chromen-4-yl)acetamido)-3-phenylpropanoate] | 98.66 ± 1.57 | 86.2 ± 10.5 | Inhibitor | 139 to 140 | 
CCOC(=O)C(Cc1ccc(O)cc1)NC(=O)Cc1cc(=O)oc2cc(O)ccc12 (stereo not drawn) [Compound 8, Ethyl 2-(2-(7-hydroxy-2-oxo-2H-chromen-4-yl)acetamido)-3-(4-hydroxyphenyl)propanoate] | 44.32 ± 4.16 | 107 ± 9.89 | Activator | 152 to 154 | 
COc1c2occc2cc2ccc(=O)oc12 [Compound 8-MOP, 8-methoxypsoralen, reference compound] |  |  | Activator |  | activity at 100 µM ([2]; read-out: Mushroom tyrosinase %Activity ± S.D., at 100 µM of tested compound): 101 ± 6.18%
CCOC(=O)C(Cc1cc2ccccc2[nH]1)NC(=O)Cc1cc(=O)oc2cc(O)ccc12 (stereo not drawn) [Compound 9, Ethyl 2-(2-(7-hydroxy-2-oxo-2H-chromen-4-yl)acetamido)-3-(1H-indol-2-yl)propanoate] | 77.57 ± 4.11 | 98.3 ± 2.55 | Inhibitor | 185 to 188 | 
O=C(Cc1cc(=O)oc2cc(O)ccc12)NCCc1ccc(O)cc1 [Compound 10, N-(4-hydroxyphenethyl)-2-(7-hydroxy-2-oxo-2H-chromen-4-yl)acetamide] | 27.51 ± 2.78 | 121 ± 7.51 | Activator | 223 to 225 | 
CCOC(=O)C(Cc1ccccc1)NC(=O)Cc1cc(=O)oc2cc(OC)ccc12 (stereo not drawn) [Compound 11, Ethyl 2-(2-(7-methoxy-2-oxo-2H-chromen-4-yl)acetamido)-3-phenylpropanoate] | 87.68 ± 1.09 | 81.3 ± 3.72 | Inhibitor | 144 to 145 | 
CCOC(=O)C(Cc1ccc(O)cc1)NC(=O)Cc1cc(=O)oc2cc(OC)ccc12 (stereo not drawn) [Compound 12, Ethyl 2-(2-(7-methoxy-2-oxo-2H-chromen-4-yl)acetamido)-3-(4-hydroxyphenyl) propanoate] | 77.84 ± 3.25 | 113 ± 8.16 | Activator | 154 to 155 | 
CCOC(=O)C(Cc1c[nH]c2ccccc12)NC(=O)Cc1cc(=O)oc2cc(OC)ccc12 (stereo not drawn) [Compound 13] | 67.88 ± 5.48 | 51.1 ± 9.45 | Inhibitor | 162 to 163 | viability at 48 h, 75 µM ([3]; 75 µM): 50%; viability at 48 h ([3]; 25–50 µM): > 80%; Cytotoxicity against B16F10 cells ([4]; 25–50 μM): did not show cytotoxicity; Effect on melanogenesis (intracellular melanin content) in B16F10 cells ([5]; 25 μM, with α-MSH, compared with KA at 100 μM): inhibited melanogenesis equally to KA at 100 μM; Effect on melanogenesis (intracellular melanin content) in B16F10 cells ([5]; 50 μM, with α-MSH, compared with KA at 100 μM): suppressed melanogenesis in B16F10 cells with two times higher potency than KA; also recorded: suppressed melanogenesis with approximately two times higher potency than KA at 100 μM; also recorded: higher melanin suppression at a lower concentration (50 μM) than KA (100 μM); Mechanism of mushroom tyrosinase inhibition [6]: uncompetitive inhibition; also recorded: uncompetitively inhibited the tyrosinase enzyme; also recorded: uncompetitive tyrosinase inhibitor
COc1ccc2c(CC(=O)NCCc3ccc(O)cc3)cc(=O)oc2c1 [Compound 14, N-(4-hydroxyphenethyl)-2-(7-methoxy-2-oxo-2H-chromen-4-yl)acetamide] | 26.66 ± 1.67 | 123 ± 13.4 | Activator | 152 to 153 | Cytotoxicity against B16F10 cells ([4]; 25–100 μM): did not show cytotoxicity; Effect on melanogenesis (intracellular melanin content) in B16F10 cells ([5]; 25–100 μM, compared with 8-MOP): melanogenesis enhancement in B16F10 cells in a dose-dependent manner, however, inferior to the 8-MOP; also recorded: effectively enhanced melanogenesis in B16F10 cells in a dose-dependent manner
CCOC(=O)C(Cc1ccccc1)NC(=O)Cc1cc(=O)oc2cc(OC)c(O)cc12 (stereo not drawn) [Compound 15, Ethyl 2-(2-(6-hydroxy-7-methoxy-2-oxo-2H-chromen-4-yl)acetamido)-3-phenylpropanoate] | 98.06 ± 0.54 | 90.8 ± 12.4 | Inhibitor | 184 to 185 | 
CCOC(=O)C(Cc1ccc(O)cc1)NC(=O)Cc1cc(=O)oc2cc(OC)c(O)cc12 (stereo not drawn) [Compound 16, Ethyl 2-(2-(6-hydroxy-7-methoxy-2-oxo-2H-chromen-4-yl)acetamido)-3-(4-hydroxyphenyl) propanoate] | 79.31 ± 2.77 | 100 ± 3.13 | Activator | 198 to 200 | 
CCOC(=O)C(Cc1c[nH]c2ccccc12)NC(=O)Cc1cc(=O)oc2cc(OC)c(O)cc12 (stereo not drawn) [Compound 17] | 91.84 ± 5.39 | 75.9 ± 8.95 | Inhibitor | 173 to 174 | 
COc1cc2oc(=O)cc(CC(=O)NCCc3ccc(O)cc3)c2cc1O [Compound 18, N-(4-hydroxyphenethyl)-2-(6-hydroxy-7-methoxy-2-oxo-2H-chromen-4-yl)acetamide] | 63.40 ± 0.89 | 115 ± 3.87 | Activator | 227 to 228 | 
O=c1cc(CO)occ1O [KA, kojic acid] |  |  |  |  | Activity against murine tyrosinase [7]: > 100 µM

Reference: publication PMC10917816, “Synthesis and evaluation of coumarin derivatives on antioxidative, tyrosinase inhibitory activities, melanogenesis, and in silico investigations” (Scientific Reports, 2024)
